Test results from US5468771A, “Cholesterol lowering compound” (Merck & Co., Inc., priority 1994, dated 1995).

Target: T1, squalene synthetase (Homo sapiens, UniProt P37268)
T1 construct: The HepG2 enzyme preparation was centrifuged at 34,000 rpm to separate the cytosol and microsomal enzymes; host or cells: HepG2 (human hepatoblastoma), resuspended 34,000 rpm pellet of sonicated cells
T1 sequence (P37268 1-417): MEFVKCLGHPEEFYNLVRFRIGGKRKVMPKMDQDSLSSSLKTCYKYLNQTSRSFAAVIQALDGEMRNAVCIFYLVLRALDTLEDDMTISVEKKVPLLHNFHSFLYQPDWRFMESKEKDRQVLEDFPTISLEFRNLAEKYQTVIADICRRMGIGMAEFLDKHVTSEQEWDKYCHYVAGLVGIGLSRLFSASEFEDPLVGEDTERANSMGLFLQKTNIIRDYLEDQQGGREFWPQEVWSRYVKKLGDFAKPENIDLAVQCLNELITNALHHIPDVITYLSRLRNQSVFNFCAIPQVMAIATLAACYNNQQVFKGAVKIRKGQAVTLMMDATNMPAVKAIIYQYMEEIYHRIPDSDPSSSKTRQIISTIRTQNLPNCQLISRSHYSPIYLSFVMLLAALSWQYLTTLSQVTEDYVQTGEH
Test: Squalene synthetase assay (in vitro, human HepG2 cell enzyme, 3H-farnesyl pyrophosphate substrate)
Type: biochemical
Conditions: 30° C., 20 minutes
Method: The intrinsic squalene synthetase inhibitory activity of the compound of this invention was measured by the ill vitro protocol described below:
PREPARATION OF HUMAN HepG2 cell ENZYME
1. SOURCE: HEPG2 CELL LINE(Liver, hepatoblastoma, Human) ATCC No. HB 8065
2. CELL GROWTH AND MAINTENANCE
Culture Medium: Minimum essential medium (MEM) with non-essential amino acids, sodium pyruvate, and 10% fetal bovine serum. The medium was changed twice weekly. […] The growth medium is prepared as listed below. […]
Subculture Procedure: Remove medium, wash with PBS, add fresh trypsin (0.25%)-EDTA (0.02%) with Hank's Balanced Salt solution and let flask stand for a minute and remove the trypsin solution . Incubate flask at 37° C. until cells detached. Add fresh medium, disperse and dispense cells into new flasks. Subcultivation ratio: 1:6.
PREPARATION of Delipidated Serum: Fetal calf serum(100 ml) and CAB-O-Sil (2 grams) stir overnight at 4° C. and centrifuge at 16,000 rpm for 5 hrs. […]
For each reaction, 55 μl of buffer mixture was taken with 5 μl of an inhibitor solution in MeOH and 10 μl of diluted enzyme (1 to 1536 as described in the enzyme preparation, the final protein concentration of enzyme in the assay is 1.2 μg per ml.). […] 400 μl of heptane layer was then removed into a […] and mixed with 2.5 ml of scintillation fluid and the radioactivity was determined by liquid scintillation counting. […]

Structure (SMILES): C=C(CC[C@]12O[C@H](C(=O)O)[C@@](O)(C(=O)O)[C@](C(=O)O)(O1)[C@H](OC(=O)/C=C/C(C)CC(C)C(C)O)[C@H]2O)[C@@H](OC(C)=O)C(C)Cc1ccccc1 (stereo partly drawn) [compound of this invention, (1S,3S,4S,5S,6R,7R)-1-[(4S)-acetoxy-3-methylene-5-methyl-6-phenyl]hexyl-4,6,7-trihydroxy-6-0-(4,6-dimethyl-7-hydroxy-2-octenoyl)-2,8-dioxabicyclo [3.2.1]octane-3,4,5-tricarboxylic acid]
- IC50 (3 μM 3H-farnesyl pyrophosphate, estimated, with a dose related inhibition, read-out: IC50 against squalene synthetase): ~0.091 nM
- inhibition at 0.0018 µM (tested at a concentration of 1.8 nM): 99%
